Reference: US20240199758A1, “METHOD FOR ALLOWING IMMUNE CELLS INFILTRATION IN TUMORS” (Alethia Biotherapeutics Inc., priority 2021, published 2024)
“Also recorded” adds a separate entry of the source.

Legend:
[1] = Non-clinical pharmacokinetics, single and repeat-dose studies in rats; format: in vivo, Sprague-Dawley rats
Description: (§1) There was an approximate 70% increase in systemic exposure following repeated dosing from Day 1 to Day 26 which is consistent with the elimination half-life of AB-16B5 and the dosing intervals. […] The sCLU concentrations were generally back to their baseline levels after 3 to 5 days. The concurrent decrease in sCLU concentrations immediately following dosing with AB-16B5 is consistent with an antigen-sink phenomenon.

[2] = target: T1, sCLU (Macaca mulatta, UniProt F6S885); test: sCLU serum concentrations after single dose administration; format: in vivo; details: Rhesus monkeys
T1 construct: from tissue; host or cells: serum of Rhesus monkeys (in vivo)
Description: as §1

[3] = test system: frozen tissues from Rhesus monkey; test: Tissue cross-reactivity study, Rhesus monkey tissues; format: binding; details: Rhesus monkey tissue panel, 2 and 10 μg/mL
Protocol: In addition, a tissue cross-reactivity study was conducted to determine the potential cross-reactivity of AB-16B5 with frozen tissues from human, Rhesus monkey, and Sprague-Dawley rat tissues.

[4] = test system: advanced solid malignancy; test: Phase I study AB-16B5-101: tumor response (RECIST) and best overall response; format: in vivo, human
[5] = Phase I study: detection of AB-16B5 in tumor biopsies; format: in vivo, human; details: for Detection of AB-16B5 in Post-Treatment Biopsy: after Cycle 2 Day 15
Description: (§2) Tumor biopsies were collected during the standard dose escalation to investigate the presence of AB-16B5 within the tumor. A total of 4 pre-treatment and 5 post-treatment tumor biopsies were suitable for analysis. These post-treatment tumor biopsies were collected following dosing on Cycle 2 Day 15 (between Cycle 2 Day 15 and Cycle 2 Day 18). The biopsy sites were liver (n=2), lymph node (n=2), bladder, skin and vulva.

[6] = test system: tumor biopsies; test: Phase I study: necrosis in paired tumor biopsies; format: in vivo, human
Protocol: as §2
Immunohistochemistry studies were conducted on paired tumor biopsies to determine if the treatment with AB-16B5 was associated with a reacquisition of an epithelial phenotype.

[7] = Non-clinical toxicity, weekly administration in monkeys
[8] = Subject 001, Pancreatic, 1.5 mg/kg, 2 total cycles
[9] = Subject 002, Endometrium, 3.0 mg/kg, 4 total cycles
[10] = Subject 003, Soft Tissue Sarcoma, 6.0 mg/kg, 2 total cycles
[11] = Subject 005, Prostate, 6.0 mg/kg, 2 total cycles
[12] = Subject 010, Colorectal, 12.0 mg/kg, 4 total cycles
[13] = Subject 012, Breast, 12.0 mg/kg, 2 total cycles
[14] = Subject 013, Prostate, 12.0 mg/kg, 2 total cycles
[15] = Subject 014, Vulvar Melanoma, 12.0 mg/kg, 2 total cycles

T1 sequence (F6S885 22-448): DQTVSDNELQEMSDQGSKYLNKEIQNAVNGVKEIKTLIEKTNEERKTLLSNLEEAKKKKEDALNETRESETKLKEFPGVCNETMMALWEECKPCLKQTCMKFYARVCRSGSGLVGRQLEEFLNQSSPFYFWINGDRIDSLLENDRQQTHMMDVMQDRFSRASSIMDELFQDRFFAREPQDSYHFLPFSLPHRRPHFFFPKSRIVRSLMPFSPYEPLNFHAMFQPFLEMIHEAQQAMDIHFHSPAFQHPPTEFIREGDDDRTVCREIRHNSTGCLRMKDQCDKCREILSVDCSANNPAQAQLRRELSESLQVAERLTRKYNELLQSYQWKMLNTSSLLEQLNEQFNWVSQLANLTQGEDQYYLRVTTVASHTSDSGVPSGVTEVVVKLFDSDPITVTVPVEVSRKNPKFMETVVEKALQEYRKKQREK

AB-16B5: humanized IgG2 monoclonal antibody targeting sCLU for the inhibition of cancer-associated EMT; light chain SEQ ID NO:11, heavy chain SEQ ID NO:12
systemic exposure over 24 hours versus dose [1]: increased with increasing dose levels in a dose proportional manner
increase in systemic exposure following repeated dosing ([1]; Day 1 to Day 26): ~70%
peak serum AB-16B5 concentrations ([1]; infusion, single and repeat-dose): reached shortly after the start of infusion
sCLU serum concentrations following dosing [2]: decreased significantly
AB-16B5 staining of tissue elements [3]: observed in a number of tissue elements
membrane staining [3]: no membrane staining was observed
subjects with best overall response progressive disease (PD) ([4]; RECIST-evaluable population): 43%
Best Overall Response [4, 8]: PD (progressive disease (PD))
Tumor Response at Last Assessment: Non-Target Lesions [4, 8]: PD (New
Tumor Response at Last Assessment: Target Lesions [4, 8]: PD (progressive disease (PD))
Tumor Response at Last Assessment: Non-Target Lesions [4, 9]: Non-CR/
Tumor Response at Last Assessment: Target Lesions [4, 9]: PD (progressive disease (PD))
Best Overall Response [4, 10]: PD (progressive disease (PD))
Tumor Response at Last Assessment: Non-Target Lesions [4, 10]: PD (New
Tumor Response at Last Assessment: Non-Target Lesions ([4]; Subject 004, Thyroid, 6.0 mg/kg, 17 total cycles): Non-CR/
Best Overall Response [4, 11]: PD (progressive disease (PD))
Tumor Response at Last Assessment: Non-Target Lesions [4, 11]: Non-CR/
Tumor Response at Last Assessment: Target Lesions [4, 11]: PD (progressive disease (PD))
Tumor Response at Last Assessment: Non-Target Lesions ([4]; Subject 006, Breast, 9.0 mg/kg, 3 total cycles): Non-CR/
Tumor Response at Last Assessment: Non-Target Lesions ([4]; Subject 007, Gastric, 9.0 mg/kg, 8 total cycles): PD (New
Tumor Response at Last Assessment: Non-Target Lesions ([4]; Subject 008, Thyroid, 9.0 mg/kg, 4 total cycles): PD (New
Tumor Response at Last Assessment: Non-Target Lesions ([4]; Subject 009, Lung, 12.0 mg/kg, 6 total cycles): PD (New
Tumor Response at Last Assessment: Non-Target Lesions [4, 12]: PD (New
Tumor Response at Last Assessment: Target Lesions [4, 12]: PD (progressive disease (PD))
Best Overall Response [4, 13]: PD (progressive disease (PD))
Tumor Response at Last Assessment: Non-Target Lesions [4, 13]: PD (progressive disease (PD))
Best Overall Response [4, 14]: PD (progressive disease (PD))
Tumor Response at Last Assessment: Non-Target Lesions [4, 14]: PD (New
Best Overall Response [4, 15]: PD (progressive disease (PD))
Tumor Response at Last Assessment: Non-Target Lesions [4, 15]: PD (New
Tumor Response at Last Assessment: Non-Target Lesions ([4]; Subject 015, Ovarian Cancer, 12.0 mg/kg, 4 total cycles): PD (New
time on treatment with stable disease (SD) with clinical benefit ([4]; patient with advanced gastric cancer): 24 weeks
duration of SD ([4]; patient with follicular thyroid cancer): ~1 year
presence of AB-16B5 in post-treatment tumor biopsies ([5]; 5 post-treatment tumor biopsies): confirmed in all post-treatment tumor biopsies analyzed; also recorded: confirmed in all 5 pts
Detection of AB-16B5 in Post-Treatment Biopsy ([5]; Subject 009, Lung, biopsy site Liver): Positive
Detection of AB-16B5 in Post-Treatment Biopsy ([5]; Subject 010, Colorectal, biopsy site Liver): Positive
Detection of AB-16B5 in Post-Treatment Biopsy ([5]; Subject 012, Breast, biopsy site Skin): Positive
Detection of AB-16B5 in Post-Treatment Biopsy ([5]; Subject 013, Prostate, biopsy site Bladder): Positive
Detection of AB-16B5 in Post-Treatment Biopsy ([5]; Subject 015, Ovarian, biopsy site Lymph node): Positive
Necrosis Post-Treatment ([6]; Subject 006, Breast, biopsy site Skin (pre-treatment 0%)): 10%
Necrosis Post-Treatment ([6]; Subject 007, Gastric, biopsy site Gastric (pre-treatment 0%)): 0%
Necrosis Post-Treatment ([6]; Subject 012, Breast, biopsy site Skin (pre-treatment 0%)): 5%
Necrosis Post-Treatment ([6]; Subject 013, Prostate, biopsy site Bladder (pre-treatment 0%)): 10%
mean albumin, globulin, A/G and phosphorus levels ([7]; monkeys, 20, 60 and/or 100 mg/kg): Slight changes
NOAEL ([7]; monkeys, weekly administration): 100 mg/kg/dose
